US6642392B1 (priority 1997, dated 2003)
Where two headings read alike, the source gives them in different places.

Experiments:
Type in all cases: in vivo
Conditions in all cases: rating relative to controls
Botrytis cinerea = experiment: Test E: gray mold, preventive spray on cucumber seedlings
Outline: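 Compounds in 3% acetone were suspended with 250 ppm Trem 014 surfactant and sprayed to run-off on cucumber seedlings. B. cinerea spores were inoculated next day, then 48 h saturated humidity at 20° C and 5 days at 20° C. Disease control rated 0–100% versus controls.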

Puccinia recondita = experiment: Test B: wheat leaf rust, preventive spray on wheat seedlings
Outline: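 Wheat seedlings were sprayed to run-off with compound (3% acetone, 250 ppm Trem 014), then inoculated with P. recondita spores the next day. They were held 24 h saturated at 20 °C, then 6 days at 20 °C. Ratings are 0–100% disease control versus controls.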

Pyricularia oryzae = system: Pyricularia oryzae
[1] = system: Eiysiphe graminis f. sp. tritici; experiment: Test A: wheat powdery mildew, preventive spray on wheat seedlings
Outline: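 Compounds (3% acetone, 250 ppm Trem 014) sprayed to run-off on wheat seedlings, inoculated next day with spore dust. Incubated 7 days at 20° C before disease rating, 0–100% control relative to untreated controls.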

Phytophthora infestans = system: Phytophthora infestans
[2] = cucumber seedlings sprayed to run-off, inoculated the following day, unmarked compounds (standard test rate)
[3] = wheat seedlings sprayed to run-off, inoculated the following day, unmarked compounds (standard test rate)
[4] = rice seedlings sprayed to run-off, inoculated the following day, unmarked compounds (standard test rate)
[5] = tomato seedlings sprayed to run-off, inoculated the following day, unmarked compounds (standard test rate)
[6] = tested at 40 ppm, wheat seedlings

Row | Structure (SMILES) | Test E disease control rating (100 = 100% disease control, 0 = no disease control) (Botrytis cinerea; [2]) [%] | Test B disease control rating (100 = 100% disease control, 0 = no disease control) (Puccinia recondita; [3]) [%] | Test C disease control rating (100 = 100% disease control, 0 = no disease control) (Pyricularia oryzae; [4]) [%] | Test A disease control rating (100 = 100% disease control, 0 = no disease control) [1, 3] [%] | Test D disease control rating (100 = 100% disease control, 0 = no disease control) (Phytophthora infestans; [5]) [%] | Test E disease control rating (100 = 100% disease control, 0 = no disease control) (Botrytis cinerea; tested at 40 ppm, cucumber seedlings) [%] | Test B disease control rating (100 = 100% disease control, 0 = no disease control) (Puccinia recondita; [6]) [%] | Test C disease control rating (100 = 100% disease control, 0 = no disease control) (Pyricularia oryzae; tested at 40 ppm, rice seedlings) [%] | Test A disease control rating (100 = 100% disease control, 0 = no disease control) [1, 6] [%] | Test D disease control rating (100 = 100% disease control, 0 = no disease control) (Phytophthora infestans; tested at 40 ppm, tomato seedlings) [%]
1 | CCC1(C(=O)NC(C)COc2cc(C(C)(C)C)ccc2C#N)C(C)C1(Cl)Cl (stereo not drawn) [compound 248] | 83 | 0 | 90 | 53 | 62 |  |  |  |  | 
2 | CCC1(C(=O)NC(C)COc2c(F)c(F)cc(F)c2F)C(C)C1(Cl)Cl (stereo not drawn) [compound 249] | 0 | 0 | 94 | 0 | 0 |  |  |  |  | 
3 | CCC1(C(=O)NC(C)COc2c(Br)cc(F)cc2Br)C(C)C1(Cl)Cl (stereo not drawn) [compound 250] | 85 | 0 | 52 | 0 | 0 |  |  |  |  | 
4 | CCC1(C(=O)NC(C)COc2c(Cl)cc(F)cc2Cl)C(C)C1(Cl)Cl (stereo not drawn) [compound 251] | 0 | 0 | 94 | 0 | 0 |  |  |  |  | 
5 | CCC(=CCNC(=O)C1(CC)C(C)C1(Cl)Cl)c1cc(Cl)ccc1Cl (stereo not drawn) [compound 262] | 0 | 0 | 53 | 98 | 99 |  |  |  |  | 
6 | CCC1(C(=O)NCC=Cc2cccc(F)c2)C(C)C1(Cl)Cl (stereo not drawn) [compound 264] | 94 | 0 | 90 | 0 | 54 |  |  |  |  | 
7 | CCC1(C(=O)NCC(C)=Cc2ccccc2)C(C)C1(Cl)Cl (stereo not drawn) [compound 265] | 0 | 0 | 91 | 77 | 96 |  |  |  |  | 
8 | CCC1(C(=O)NC(C)C=Cc2ccc(Cl)cc2Cl)C(C)C1(Cl)Cl (stereo not drawn) [compound 266] | 0 | 0 | 91 | 63 | 74 |  |  |  |  | 
9 | CCC1(C(=O)NCC=C(C)c2ccccc2)C(C)C1(Cl)Cl (stereo not drawn) [compound 268] | 0 | 0 | 91 | 38 | 88 |  |  |  |  | 
10 | CCC(=CCNC(=O)C1(CC)C(C)C1(Cl)Cl)c1ccccc1 (stereo not drawn) [compound 269] | 0 | 0 | 94 | 98 | 74 |  |  |  |  | 
11 | CCC1(C(=O)NCC(C)=Cc2cc(Cl)ccc2Cl)C(C)C1(Cl)Cl (stereo not drawn) [compound 270] | 0 | 0 | 91 | 77 | 96 |  |  |  |  | 
12 | CCC1(C(=O)NCC=C(C)c2cc(Cl)ccc2Cl)C(C)C1(Cl)Cl (stereo not drawn) [compound 271] | 0 | 0 | 94 | 77 | 96 |  |  |  |  | 
13 | CCC(C#N)C(=O)N[C@H](C)[C@H](Oc1cc(F)ccc1F)c1ccccc1 (stereo partly drawn) [compound 293] | 0 | 0 | 100 | 0 | 23 |  |  |  |  | 
14 | CCC(C#N)C(=O)N[C@H](C)[C@H](Oc1ccccc1C#N)c1ccccc1 (stereo partly drawn) [compound 304] | 0 | 0 | 97 | 0 | 0 |  |  |  |  | 
15 | CCC1(C(=O)NC(C)COc2cc(F)cc(F)c2Cl)C(C)C1(Cl)Cl (stereo not drawn) [compound 318] |  |  |  |  |  | 0 | 0 | 53 | 90 | 0
